Source: PMC8279484 (Journal of Medicinal Chemistry, 2021)
Where two headings read alike, the source gives them in different places.

Columns and labels:
Format in all cases: cell-based, human
NF-κB = test: LPS-induced NF-κB-driven luciferase gene reporter assay in THP-1 Lucia monocytes; conditions: for Rel. Slope: HS relative to LXA4 (1); for IC50: Homo sapiens, THP-1; for Potency Rel. Pot.: IC50 relative to LXA4 (1); for Efficacy Rel. Eff.: Imax relative to LXA4 (1); for Imax (%): maximal % inhibition of LPS (50 ng/mL)-stimulated NF-κB luciferase activity, 30 min pretreatment; for Imax (%) / reduction of LPS-induced NF-κB-driven luciferase activity: 1 pM–1 μM; for (Single component) Rel. Score: Rel. Pot. / (Single component) Rel. Score: Rel. Sl.: score relative to LXA4 (1); for reduction of LPS-induced NF-κB-driven luciferase activity: approximate extent; for Slope HS (Hill–Slope): slope of concentration–response curve; for (Aggregate) Rel. PD Score: sum of efficacy, potency, slope scores relative to LXA4 (1)
Procedure: Mycoplasma-free THP-1-Lucia NF-κB cells were grown in an RPMI 1640 (Gibco) medium containing 2 mM L-glutamine, 1.50 g/L sodium bicarbonate, 4.50 g/L glucose, 10 mM N-(2-hydroxyethyl)piperazine-N′-ethanesulfonic acid (HEPES), and 1 mM sodium pyruvate. Then, 10% heat-inactivated fetal bovine serum (FBS) (30 min at 56 °C), 100 μg/mL Normocin, and Pen-Strep (50 U/mL to 50 μg/mL) were also added to the growth media. As THP-1-Lucia cells were resistant to Zeocin, the latter was used as a selective antibiotic (a high dose, i.e., 100 μg/mL, was alternated every 2 weeks with a low dose, i.e., 10 μg/mL).
(§1) LXA41 and all of the tested sLXms were dissolved in ethanol and further diluted in a culture medium (final ethanol concentration 0.1%; equivalent concentrations were used as the vehicle control). Prior to in vitro experiments, THP-1-Lucia NF-κB cells were harvested and plated at 1 × 10^5 cells/well on 96-well plates and left to settle in the incubator at 37 °C, 95% humidity, and 5% CO2, in 0.1% FBS-containing media, pretreated for 30 min with increasing doses of LXA41, sLXms (from 10^–12 to 10^–6 M), or appropriate controls, followed by stimulation with 50 ng/mL LPS for 24 h.
NFκB activity was monitored in the human THP-1 monocytic leukemia cell line containing a stably integrated NF-κB-inducible Lucia reporter construct (as previously reported).[21] When stimulated with LPS, the transcription factor NF-κB is activated, upregulating the synthesis of proinflammatory mediators, thus bringing about an inflammatory response. In these cells, NF-κB activation is linked to a […] luciferase gene and can be measured using luminescence.
Heat-killed listeria monocytogenes (HKLM) (10^8/mL) was used as a positive control.[28] The levels of NF-κB-induced Luciferase were then measured in a culture supernatant using QUANTI-Luc as the detection reagent, and measurements were taken on a bioluminescence reader.
After 24 h, the levels of NF-κB-induced Lucia were assayed in a cell culture supernatant using QUANTI-Luc, as a detection reagent, on a bioluminescence reader (Synergy HT, BioTek Instruments, Inc. Vermont). Aliquots of the supernatant were retained for subsequent cytokine and LDH assays. Cellular proteins were extracted with a radioimmunoprecipitation assay (RIPA) buffer (Thermo Fisher, Ireland), supplemented with protease inhibitors (Sigma-Aldrich, Ireland). Lysates were clarified by centrifugation (3200g, 10’, 4 °C) to remove cell debris, and the cell protein level was quantified by performing a bicinchoninic acid (BCA) assay (as per the manufacturer’s instructions) reading the protein absorbance at 570 nm, using a spectrophotometer (SPECTRAMAX M2, Molecular Devices (U.K.) Limited). A “relative luminescence unit” (RLU) was obtained using the average value of the lum/abs ratio of two replicates.
The “coding” of the heat-map indicates the arbitrary criteria to assign points to each single PD component (efficacy = Imax or Emax; potency = IC50 or EC50; slope = HS) to generate a final (aggregate) relative PD score. […] If a single PD component was equal to the reference level (x = 1), then the single-component relative score was arbitrarily set to 0 (gray). If a single PD component was smaller than the reference level (x < 1), then the single-component relative score was arbitrarily set to −1 (light red) or −2 (dark red). If the curve of a single PD component was best fitting to a flat line (x = 0), then the single-component relative score was arbitrarily set to −4 (purple) (Table S1).

IFNγ = test: LPS-induced IFNγ release from THP-1 Lucia monocytes (multiplex electrochemiluminescence); conditions: for IC50: Homo sapiens, THP-1; for IC50 / Imax, IFNγ release: LPS 50 ng/mL, 24 h; for Imax, IFNγ release: concentration–response
Procedure: as §1, with “h. Untreated (Unt) or vehicle-treated (Veh) cells were used as negative controls; 1 pM (1R)-5, the (1R)-epimer of the benzo-mimetic, was used as a positive control for any aromatic mimetic; and, finally, we compared the observed effects to the conventional glucocorticoid dexamethasone (Dex) treatment, at 1 μM.” for “h.”
After 24 h of exposure to LXA41, sLXms, or vehicle, followed by LPS stimulation (50 ng/mL), as described above, THP-1-Lucia NF-κB-cell supernatants were collected and cleared by centrifugation. Concentrations of IFN-γ, IL-1β, IL-6, IL-8, IL-10, IL-12p70, and TNF-α in culture supernatants were assessed by electro-chemi-luminescent detection, using a commercially available human 96-well plate “multiplex” (several analytes in the same well) kit for tissue culture samples, according to the manufacturers’ guidelines.
The “coding” of the heat-map indicates the arbitrary criteria to assign points to each single PD component (efficacy = Imax or Emax; potency = IC50 or EC50; slope = HS) to generate a final (aggregate) relative PD score. If a single PD component was greater than the reference level (x > 1), then the single-component relative score was arbitrarily set to +1 (light green) or +2 (dark green). If a single PD component was equal to the reference level (x = 1), then the single-component relative score was arbitrarily set to 0 (gray). If a single PD component was smaller than the reference level (x < 1), then the single-component relative score was arbitrarily set to −1 (light red) or −2 (dark red). If the curve of a single PD component was best fitting to a flat line (x = 0), then the single-component relative score was arbitrarily set to −4 (purple) (Table S1).

THP-1 LUCIA monocytes = test: In vitro safety study: Safety index (Si), activity versus toxicity; conditions: for IC50: Homo sapiens, THP-1, highest IC50 among the LPS-challenged assays (NF-κB activity, cytokine, LDH release), read-out: Extrinsic Activity hIC50; for Safety Index TC50/IC50: ratio of intrinsic TC50 to extrinsic hIC50
Procedure: A postanalysis “safety study” was conducted on all QNX-sLXms. For each tested compound, we calculated an in vitro “Safety index” (Si) by relating its “anti-inflammatory half-maximal activity” (the highest dose among the IC50 of the extrinsic LPS-challenged phenotype: NF-κB activity, proinflammatory cytokine, and LDH release) to its intrinsic “toxicity” (expressed as the relative half-maximal LDH-associated cytotoxicity). The generated Si is potentially predictive of a translational “therapeutic” range: the higher the Si, the safer the molecule is. As summarized in Table S4, Si values from all tested compounds fall in a broad range (7–50).

[1] = LPS 50 ng/mL, 24 h, read-out: Potency IC50

IC50 (NF-κB; LPS 50 ng/mL, 24 h, read-out: IC50) [nM] | IC50 (IFNγ) [nM] | IC50 (NF-κB; [1]) [nM] | IC50 (range in words) (NF-κB; LPS 50 ng/mL, 24 h) | SMILES | Rel. Slope (NF-κB) | Potency Rel. Pot. (NF-κB) | Efficacy Rel. Eff. (NF-κB) | Imax (%) (NF-κB; 24 h) | (Single component) Rel. Score: Rel. Pot. (NF-κB) | (Single component) Rel. Score: Rel. Sl. (NF-κB) | Imax, IFNγ release (IFNγ) [%] | IC50 (THP-1 LUCIA monocytes) [nM] | Safety Index TC50/IC50 (THP-1 LUCIA monocytes) | reduction of LPS-induced NF-κB-driven luciferase activity (NF-κB) | Slope HS (Hill–Slope) (NF-κB) | (Aggregate) Rel. PD Score (NF-κB) | PD score, IFNγ release (IFNγ; relative to LXA4 (1))
 |  | 0.01 | “pM” range | CCCCCCC[C@H](O)c1nc2ccccc2nc1/C=C/[C@@H](O)[C@@H](O)CCCC(=O)OC [(S)-8, Methyl (5S,6R,E)-5,6-Dihydroxy-8-(3-((S)-1-hydroxyoctyl)quinoxalin-2-yl)oct-7-enoate] | 0 | 6 | 0.96 | 23 ± 8 | 2 (x ≥ 5) | -4 (x = 0) |  | 0.01 | 10 | 10–20% | 0 | -2 | negative PD scores
 | 0.001 |  |  | CCCCC[C@H](O)/C=C/C=C\C=C\C=C\[C@@H](O)[C@@H](O)CCCC(=O)O [Compound 1, LXA4] | 1 | 1 | 1 | 24 ± 1 |  |  | 72 ± 4 |  |  |  |  |  | 

Second part, the compound before the results:

SMILES | IC50 (NF-κB; LPS 50 ng/mL, 24 h, read-out: IC50) [nM] | IC50 (IFNγ) [nM] | IC50 (NF-κB; [1]) [nM] | IC50 (range in words) (NF-κB; LPS 50 ng/mL, 24 h) | Rel. Slope (NF-κB) | Potency Rel. Pot. (NF-κB) | Efficacy Rel. Eff. (NF-κB) | Imax (%) (NF-κB; 24 h) | (Single component) Rel. Score: Rel. Pot. (NF-κB) | (Single component) Rel. Score: Rel. Sl. (NF-κB) | Imax, IFNγ release (IFNγ) [%] | IC50 (THP-1 LUCIA monocytes) [nM] | Safety Index TC50/IC50 (THP-1 LUCIA monocytes) | reduction of LPS-induced NF-κB-driven luciferase activity (NF-κB) | Slope HS (Hill–Slope) (NF-κB) | (Aggregate) Rel. PD Score (NF-κB) | PD score, IFNγ release (IFNγ; relative to LXA4 (1))
CCCCC[C@@H](O)c1nc2ccccc2nc1/C=C/[C@@H](O)[C@@H](O)CCCC(=O)OC [(R)-6, Methyl (5S,6R,E)-5,6-Dihydroxy-8-(3-((R)-1-hydroxyhexyl)quinoxalin-2-yl)oct-7-enoate] | 0.025 | 0.001 |  |  | 57 | 2.4 | 1.58 | 38 ± 9 | 1 (1 < x < 5) | 2 (x ≥ 10) | 62 ± 1 | 0.025 | 20 |  |  |  | 
CCCCC[C@@H](O)c1nc2ccccc2nc1/C=C/[C@H]1OC(C)(C)O[C@H]1CCCC(=O)OC [(R)-17, Methyl 4-((4S,5R)-5-((E)-2-(3-((R)-1-Hydroxyhexyl)quinoxalin-2-yl)vinyl)-2,2-dimethyl-1,3-dioxolan-4-yl)butanoate] |  |  | 0.001 |  | 0 | 60 | 0.75 | 18 ± 7 | 2 (x ≥ 5) | -4 (x = 0) |  | 0.01 | 10 | least effective | 0 | -3 | 
CCCCC[C@@H](O)c1c(/C=C/[C@@H](O)[C@@H](O)CCCC(=O)OC)nc(C)n1C [Compound 5, imidazolo-LXA4] |  |  |  |  | -9 | 300 | 1.83 | 44 ± 9 | 2 (x ≥ 5) | 1 (1 < x < 10) |  |  |  |  | 90 | 5 | 
